Measured values taken from publication PMC11491487 (Nature Communications, 2024).
“And” between values parts separate entries of the source, which are not always exact repeats. Equal values may be shown once. Read-outs that look alike come from different tables or passages of the source.

Assays:
chiRyR [1] = molecular target: T1, chiRyR (Oryctolagus cuniculus, UniProt P11716, C4657I/F4564Y/L4792S/R4563K); assay: biochemical; format: biochemical, rabbit
chiRyR-I4657M/G4819E = chiRyR-I4657M/G4819E (Oryctolagus cuniculus, UniProt P11716, C4657M/F4564Y/G4819E/L4792S/R4563K); assay: biochemical; format: biochemical, rabbit; settings: for [3H]ryanodine binding (B/Bmax): 1 μM TET
rRyR1 = rRyR1 (Oryctolagus cuniculus, UniProt P11716); assay: time-lapse [Ca2+]ER fluorescence assay, HEK293 cells; format: cell-based, rabbit
Sf RyR = Sf RyR (Spodoptera frugiperda, UniProt A0A4P8L6R5); assay: as above; format: cell-based
chiRyR [2] = molecular target: T1, chiRyR; assay: cell-based; set-up: species or system rabbit
[3] = Ca2+-dependent [3H]ryanodine binding, mean ± SD, n=4
[4] = Ca2+-dependent [3H]ryanodine binding, mean ± SD, n=4, read-out: EC50 values for Ca2+

[Ca+2] [Ca2+]
IC50 (chiRyR [1]; [3]): 670 ± 370 µM
EC50 (chiRyR [1]; [4]): 5 ± 1.1 µM
IC50 (chiRyR-I4657M/G4819E; [3]): 590 ± 190 µM
EC50 (chiRyR-I4657M/G4819E; [4]): 4.4 ± 2.4 µM

CNC(=O)c1cc(C#N)cc(C)c1NC(=O)c1cc(Cn2nnc(C(F)(F)F)n2)nn1-c1ncccc1Cl [TET, tetraniliprole]
F/F0 (rRyR1; TET 0.01 uM): 0.9832 and 0.9899 and 0.9753
F/F0 (rRyR1; TET 0.1 uM): 0.9793 and 0.9852 and 0.9641
F/F0 (rRyR1; TET 0.3 uM): 0.9696 and 0.952 and 0.9539
F/F0 (rRyR1; TET 1 uM): 0.9135 and 0.9295 and 0.9254
F/F0 (rRyR1; TET 3 uM): 0.8107 and 0.8058 and 0.7756
F/F0 (rRyR1; TET 10 uM): 0.34 and 0.3602 and 0.3556
F/F0 (rRyR1; TET 30 uM): 0.3168 and 0.2562 and 0.2448
F/F0 (rRyR1; TET 100 uM): 0.2045 and 0.2471 and 0.2529
EC50 (rRyR1; diamide insecticides, n = 3, read-out: EC50): 7.6 µM
EC50 (Sf RyR): 0.175 µM
F/F0 (Sf RyR; TET 1e-5 uM): 0.9606 and 0.9752 and 0.9813
F/F0 (Sf RyR; TET 0.001 uM): 1.004 and 1.002 and 1.001
F/F0 (Sf RyR; TET 0.01 uM): 0.3097 and 0.3094 and 0.2868
F/F0 (Sf RyR; TET 0.1 uM): 0.2582 and 0.2663 and 0.2776
F/F0 (Sf RyR; TET 0.5 uM): 0.268 and 0.2944 and 0.2596
F/F0 (Sf RyR; TET 1 uM): 0.2734 and 0.2934 and 0.2867
F/F0 (Sf RyR; TET 10 uM): 0.2774 and 0.2809 and 0.2932
F/F0 (Sf RyR; TET 50 uM): 0.2939 and 0.2698 and 0.3129
EC50 (chiRyR [2]): 0.0461 µM
F/F0 (chiRyR [2]; TET 1e-5 uM): 0.9259 and 0.9674 and 0.9677
F/F0 (chiRyR [2]; TET 0.001 uM): 0.7877 and 0.806 and 0.7759
F/F0 (chiRyR [2]; TET 0.01 uM): 0.2917 and 0.2699 and 0.2537
F/F0 (chiRyR [2]; TET 0.1 uM): 0.2632 and 0.2374 and 0.2313
F/F0 (chiRyR [2]; TET 0.5 uM): 0.2569 and 0.2462 and 0.2329
F/F0 (chiRyR [2]; TET 1 uM): 0.2399 and 0.24 and 0.2303
F/F0 (chiRyR [2]; TET 10 uM): 0.2639 and 0.2436 and 0.2393
F/F0 (chiRyR [2]; TET 50 uM): 0.3123 and 0.2617 and 0.3022
EC50 (chiRyR [1]): 0.0111 ± 0.0009 µM
promotion of [3H]ryanodine binding (chiRyR [1]; 1 μM TET): promote
[3H]ryanodine binding (B/Bmax) (chiRyR [1]; 1 μM TET, pCa 2.01): 0.5896 and 0.5427 and 0.6286 and 0.5623
[3H]ryanodine binding (B/Bmax) (chiRyR [1]; 1 μM TET, pCa 2.54): 0.4881 and 0.5388 and 0.5232 and 0.4217
[3H]ryanodine binding (B/Bmax) (chiRyR [1]; 1 μM TET, pCa 3.01): 0.2889 and 0.3787 and 0.4022 and 0.2616
[3H]ryanodine binding (B/Bmax) (chiRyR [1]; 1 μM TET, pCa 3.52): 0.2967 and 0.3397 and 0.4256 and 0.2811
[3H]ryanodine binding (B/Bmax) (chiRyR [1]; 1 μM TET, pCa 3.89): 0.2811 and 0.328 and 0.3319 and 0.2616
[3H]ryanodine binding (B/Bmax) (chiRyR [1]; 1 μM TET, pCa 4.5): 0.2889 and 0.2655 and 0.3319 and 0.285
[3H]ryanodine binding (B/Bmax) (chiRyR [1]; 1 μM TET, pCa 5): 0.3163 and 0.2538 and 0.3046 and 0.2694
[3H]ryanodine binding (B/Bmax) (chiRyR [1]; 1 μM TET, pCa 5.43): 0.3436 and 0.285 and 0.2889 and 0.367
[3H]ryanodine binding (B/Bmax) (chiRyR [1]; 1 μM TET, pCa 6.01): 0.2772 and 0.2421 and 0.3319 and 0.3085
[3H]ryanodine binding (B/Bmax) (chiRyR [1]; 1 μM TET, pCa 6.55): 0.3358 and 0.246 and 0.3826
[3H]ryanodine binding (B/Bmax) (chiRyR [1]; 1 μM TET, pCa 6.98): 0.2616 and 0.2694 and 0.2382 and 0.2108
EC50 (chiRyR-I4657M/G4819E): 87.8 ± 6.4 µM
[3H]ryanodine binding (B/Bmax) (chiRyR-I4657M/G4819E; pCa 3.52): 0.1264 and 0.1119 and 0.1409 and 0.1015
[3H]ryanodine binding (B/Bmax) (chiRyR-I4657M/G4819E; pCa 3.89): 0.1367 and 0.1222 and 0.1015
[3H]ryanodine binding (B/Bmax) (chiRyR-I4657M/G4819E; pCa 4.5): 0.1326 and 0.1367 and 0.1347 and 0.1885
[3H]ryanodine binding (B/Bmax) (chiRyR-I4657M/G4819E; pCa 5): 0.172 and 0.0953 and 0.1139 and 0.1243
[3H]ryanodine binding (B/Bmax) (chiRyR-I4657M/G4819E; pCa 5.43): 0.04765 and 0.0663 and 0.05179 and 0.06008
